According to paper PMC13114161 (Antibiotics, 2026):
Read-outs that look alike come from different tables or passages of the source.

Columns and labels:
P. aeruginosa ATCC 27853 [1] = test: Membrane polarization assay DiOC2(3); type: cell-based, Pseudomonas aeruginosa
Method: RND efflux pumps require an intact proton motive force across the inner membrane to mediate drug efflux. Accordingly, collapse of the membrane potential could indirectly disable efflux activity and result in apparent antibiotic potentiation. To determine whether TXA11114 dissipates the membrane potential of P. aeruginosa, membrane polarization was assessed using the fluorescent probe 3,3′-diethyloxacarbocyanine iodide (DiOC2(3)). DiOC2(3) accumulates in cells with polarized membranes, undergoing a concentration-dependent shift from green to red fluorescence due to dye stacking; membrane depolarization prevents this shift. […] CCCP and azithromycin were included as positive and negative controls, respectively. […] This discrepancy likely reflects a methodological limitation of the DiOC2(3) assay in Gram-negative bacteria. Specifically, EDTA treatment is required to transiently permeabilize the outer membrane to permit DiOC2(3) access to the cytoplasmic membrane (see Methods). While necessary for probe uptake, EDTA can sensitize cells to secondary perturbations and may exaggerate subtle fluorescence changes at supraphysiological compound concentrations.
P. aeruginosa membrane polarization assays were conducted as described previously using strain ATCC 27853. Briefly, mid-exponential phase (OD600 of 0.5) P. aeruginosa was pelleted by centrifugation at 3000× g for 10 min at room temperature. Cells were then resuspended in 1× PBS, treated with 10 mM EDTA for 5 min and then centrifuged at 300× g for 10 min to remove EDTA. EDTA-treated cells were pelleted and resuspended to an OD600 of 1.0 in assay resuspension buffer. A 6 mM DiOC2(3) stock in DMSO was added to cells for a final concentration of 30 µM. DiOC2(3)-loaded cells were then added to a 96-well black bottom microplate for a final volume of 200 µL. […] After 15 min incubation at 37 °C in dark, DiOC2(3) fluorescence was recorded using the SpectraMax iD5 spectrophotometer (Molecular Devices, San Jose, CA, USA) using 450 nm excitation. Red fluorescence intensity was recorded at 670 nm emission.

[2] = Initial nephrotoxicity screen (BUN, creatinine); type: in vivo, Sprague Dawley rats; settings: male rats, 10 mg/kg IV QD, 24 h after dosing
Method: BUN and CRE analyses were conducted by SRI International (Menlo Park, CA, USA). Adult male Sprague Dawley rats (n = 3 per group) received TXA11114 (10 mg/kg, IV, QD), and blood samples were collected 24 h after dosing.

Plasma stability [3] = type: in vitro ADME, human
Method: (§1) Plasma stability was assessed by incubating the compound in plasma at 37 °C and monitoring parent compound disappearance over time by LC-MS/MS. Half-life values were calculated assuming first-order kinetics.

P. aeruginosa ATCC 27853 [4] = test: Ethidium bromide efflux inhibition; type: cell-based, Pseudomonas aeruginosa
Source text: In the first assay, the efflux of ethidium bromide (EtBr) by P. aeruginosa cells is studied in the presence of different concentrations of TXA11114.

Plasma stability [5] = type: in vitro ADME; settings: read-out: Plasma stability t1/2
Method: as §1

Microsomal stability [6] = type: in vitro ADME, human; settings: pH 7.4
Method: (§2) The metabolic stability of TXA11114 was evaluated in liver microsomes from human (HLM), dog (DLM), rat (RLM), and mouse (MLM). Test compound disappearance over time was monitored by LC-MS/MS. Verapamil (HLM and RLM) and imipramine (DLM and MLM) were used as positive controls. […] Aliquots (70 µL) were transferred to 96-well reaction plates and pre-incubated at 37 °C for 5 min. Reactions were initiated by adding 30 µL NADPH (final concentration 1 mM). Control incubations lacking NADPH were included to assess non-enzymatic degradation. Reactions were terminated at 0, 5, 15, 30, and 60 min by the addition of 100 µL ice-cold acetonitrile containing glipizide as an internal standard.

Microsomal stability [7] = type: in vitro ADME; settings: rat, liver microsomes, pH 7.4; read-out: Microsome Stability t1/2
Method: as §2

P. aeruginosa ATCC 27853 [8] = test: Intracellular ATP levels; type: cell-based, Pseudomonas aeruginosa; settings: three hours post-treatment
Method: Further, a deviation from normal membrane function can affect the activity of respiratory components and diminish ATP synthesis. Thus, an indirect approach to assess a drug’s membrane effect is by monitoring cellular ATP levels after treatment. To exclude ATP depletion as a TXA11114 MoA, bacterial ATP levels were evaluated three hours post-treatment. […] Azithromycin was used as a negative control.
P. aeruginosa intracellular ATP levels were determined as described previously using an ATP determination kit (Invitrogen, Life Technologies, Carlsbad, CA, USA). Bacterial culture strain ATCC 27853 was grown to the mid-log phase (OD600 = 0.7), washed, and resuspended in the same volume of PBSM (1X PBS, 1mM MgCl2). […] After treatment, the cells were lysed in chloroform which was subsequently removed by boiling at 80 °C. The persistent ATP from cell lysate was measured in a 96-well black flat-bottom plate by measuring the luminescence. Luminescence was converted to concentration from standard curve. […] Error bars represent the standard deviation of triplicates.

For `NCC(F)C[C@@H](N)CNC(=O)c1cc2ccc(-c3ccc(F)cc3)cc2[nH]1` (stereo partly drawn) [TXA11114, N-((2R)-2,5-diamino-4-fluoropentyl)-6-(4-fluorophenyl)-1H-indole-2-carboxamide], the “Concentrations with modest increase in apparent depolarization” value (P. aeruginosa ATCC 27853 [1]) was > 10 µg/mL, the Membrane depolarization (P. aeruginosa ATCC 27853 [1]; 0.01–20 µM) was “did not induce significant membrane depolarization” and the “Blood Urea Nitrogen” value [2] was 15.3 mg/dL. For the same molecule, the Creatinine [2] was 0.22 mg/dL, the half-life (Plasma stability [3]; across four species (human, dog, rat, and mouse), read-out: Plasma stability half-life) was > 2 h and the half-life (Plasma stability [3]; human, read-out: Plasma stability t1/2) was > 2 h. For the same molecule, the “Minimal potentiation concentration (MPC)” value (P. aeruginosa ATCC 27853 [4]; elevated inoculum of EtBr assay (approximately 1000-fold greater)) was 12.5 µg/mL, the “EtBr efflux blockade (fluorescence)” value (P. aeruginosa ATCC 27853 [4]; increasing TXA11114 concentration) was “fluorescence intensity increased proportionally” and the half-life (Plasma stability [5]; dog) was > 2 h. For the same molecule, the half-life (Plasma stability [5]; mouse) was > 2 h, the half-life (Plasma stability [5]; rat) was > 2 h and the half-life at 1 µM (Microsomal stability [6]; human, liver microsomes, read-out: Microsome Stability t1/2) was > 1 h. For the same molecule, the half-life at 1 µM (Microsomal stability [6]; human and rat liver microsomes, read-out: Microsomal stability half-life) was > 1 h, the half-life at 1 µM (Microsomal stability [7]) was > 1 h and the “Cellular ATP level” value (P. aeruginosa ATCC 27853 [8]) was “did not result in ATP depletion”.
